Data taken from ChEMBL document CHEMBL1201862, “PubChem BioAssay data set” (2004).
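1) Cells in 96-well plates. 2) Compound, 48 h, 5 concentrations. 3) Linear interpolation between surrounding doses. 4) Unreached endpoint = highest concentration. Here, GI50 denotes the concentration required for 50% inhibition of growth.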 Active and inactive are the calls of the source. Rule as the data show it: active = GI50 up to about 1.1 µM and inactive = higher.

Assays:
Test in all cases: NCI tumour cell line growth inhibition, 48 h
[1] = tested on: MOLT-4
[2] = tested on: UACC-257
[3] = tested on: Malme-3M
[4] = tested on: NCI-H23
[5] = tested on: NCI/ADR-RES
[6] = tested on: SK-MEL-2
[7] = tested on: T47D
[8] = tested on: CAKI-1
[9] = tested on: NCI-H460
[10] = tested on: KM12
[11] = tested on: Hs-578T
[12] = tested on: HOP-62
[13] = tested on: MCF7
[14] = tested on: HT-29
[15] = tested on: MDA-MB-231
[16] = tested on: SR
[17] = tested on: U-251
[18] = tested on: A498
[19] = tested on: ACHN
[20] = tested on: HL-60

Measured: GI50

O=C(O)Cc1c(O)ccc2ccccc12
inactive: [1] > 100 µM | [2] > 100 µM | [3] > 100 µM | [4] > 100 µM | [5] > 100 µM | [6] > 100 µM | [7] > 100 µM | [8] > 100 µM | [9] > 100 µM | [10] > 100 µM | [11] > 100 µM | [12] > 100 µM | [13] > 100 µM | [14] > 100 µM | [15] > 100 µM | [16] > 100 µM | [17] > 100 µM | [18] > 100 µM | [19] > 100 µM

Cc1ccn2c(=O)cc(-c3ccccc3)nc2c1
inactive: [1] > 100 µM | [2] > 100 µM | [3] > 100 µM | [4] > 100 µM | [5] 72.3 µM | [20] > 100 µM | [7] 49.7 µM | [9] > 100 µM | [10] 68.9 µM | [11] > 100 µM | [12] > 100 µM | [13] > 100 µM | [14] > 100 µM | [15] > 100 µM | [16] > 100 µM | [17] > 100 µM | [19] 71.1 µM

Nc1ccc(Cc2c(N)[nH]c(=O)[nH]c2=O)cc1
inactive: [1] 1.61 µM | [2] > 100 µM | [3] > 100 µM | [4] > 100 µM | [5] > 100 µM | [6] > 100 µM | [20] 85.5 µM | [7] > 100 µM | [8] > 100 µM | [9] > 100 µM | [11] > 100 µM | [13] > 100 µM | [14] > 100 µM | [15] > 100 µM | [17] > 100 µM | [18] 47.3 µM | [19] > 100 µM

CCCn1c(SC)nc(COC(=O)NC)c1COC(=O)NC
inactive: [1] > 100 µM | [2] > 100 µM | [4] > 100 µM | [5] > 100 µM | [6] > 100 µM | [20] > 100 µM | [7] > 100 µM | [8] > 100 µM | [9] > 100 µM | [10] > 100 µM | [11] > 100 µM | [12] > 100 µM | [13] > 100 µM | [14] > 100 µM | [15] > 100 µM | [16] > 100 µM | [18] 64 µM | [19] > 100 µM

O=C1CCC2=C(CCC2)N1CCc1ccc2c(c1)OCO2
inactive: [1] 15.4 µM | [2] 84.9 µM | [3] > 100 µM | [4] 38 µM | [5] 43 µM | [6] 29.9 µM | [20] 7.62 µM | [7] 37 µM | [8] 81.8 µM | [9] 48.2 µM | [10] 62.4 µM | [11] 49 µM | [12] 94.6 µM | [13] 60 µM | [14] 92 µM | [15] > 100 µM | [16] 30.9 µM | [17] 45.7 µM | [19] 77.3 µM

O=c1[nH]c(=O)n(C2CC(O)C(CO)O2)cc1C1=NC1 (configuration not stated)
inactive: [1] > 100 µM | [2] > 100 µM | [4] > 100 µM | [5] > 100 µM | [6] > 100 µM | [7] 35.2 µM | [9] > 100 µM | [10] > 100 µM | [11] > 100 µM | [12] > 100 µM | [13] > 100 µM | [14] > 100 µM | [15] > 100 µM | [17] > 100 µM | [18] > 100 µM | [19] > 100 µM

O=C(O)C1(Cc2ccccc2)Cc2cc3c(cc2C1)CCC3
inactive: [1] > 100 µM | [2] > 100 µM | [3] > 100 µM | [4] > 100 µM | [5] 89.3 µM | [6] 82 µM | [20] 48.9 µM | [7] 18.3 µM | [9] 86.9 µM | [10] 68.4 µM | [11] 75.2 µM | [12] 99.3 µM | [13] > 100 µM | [14] > 100 µM | [15] > 100 µM | [16] > 100 µM | [17] 66.4 µM | [19] > 100 µM

COCOc1cc(OC)c(Br)cc1C/C(=N/O)C(=O)OC
inactive: [1] 27.5 µM | [2] 46.6 µM | [3] 25.5 µM | [4] 90.4 µM | [5] 34 µM | [6] 88.5 µM | [20] 52.7 µM | [7] 15.8 µM | [8] 48.8 µM | [9] 71.9 µM | [10] > 100 µM | [11] 15.9 µM | [12] 67.3 µM | [13] 95.5 µM | [14] > 100 µM | [15] 42.2 µM | [16] 34.7 µM | [17] > 100 µM | [19] > 100 µM

[O-][N+]1=C2CCC/C(=N/O)C2(O)C2CCCCC21N1CCOCC1 (configuration not stated)
inactive: [1] > 100 µM | [2] > 100 µM | [3] > 100 µM | [4] > 100 µM | [5] > 100 µM | [6] > 100 µM | [7] > 100 µM | [8] > 100 µM | [9] > 100 µM | [10] > 100 µM | [11] > 100 µM | [12] > 100 µM | [13] > 100 µM | [14] > 100 µM | [15] > 100 µM | [16] > 100 µM | [17] > 100 µM | [19] > 100 µM

O=c1[nH]c2nc3ccccc3c(=O)n2/c1=C/c1ccccc1
inactive: [1] 95.5 µM | [2] 23.7 µM | [3] 38.6 µM | [4] 30.3 µM | [5] 43.6 µM | [6] > 100 µM | [20] 56.1 µM | [7] 40.4 µM | [8] 47.4 µM | [10] 38.5 µM | [11] 29 µM | [12] > 100 µM | [13] 44.2 µM | [14] 17.5 µM | [15] > 100 µM | [16] > 100 µM | [17] 29.9 µM | [19] 47 µM

O=c1cc(N2CCNCC2)nc2ccccn12
inactive: [1] > 100 µM | [2] > 100 µM | [3] > 100 µM | [4] > 100 µM | [5] > 100 µM | [6] > 100 µM | [20] > 100 µM | [7] > 100 µM | [8] > 100 µM | [10] > 100 µM | [11] > 100 µM | [12] > 100 µM | [13] > 100 µM | [14] > 100 µM | [15] > 100 µM | [17] > 100 µM | [18] > 100 µM | [19] > 100 µM
